The source of these data is US3957850A, “Phenylacetic acid derivatives” (priority 1971, dated 1976).

Each structure is given as a SMILES string. Like-named read-outs stand apart in the source and are kept apart here.

Data set [1] can be described thus: Acute toxicity determination, oral LD50 by method of BEHRENS and KARBER. The note with it: mouse, in vivo, female Swiss mice, 48 hours observation. As to the method: Acute toxicity tests were carried out with lots of 10 female mice of "Swiss" strain, weighing from 19 to 21 g.
The means lethal dose (LD50) by the oral route was determined by means of the method of BEHRENS and KARBER after keeping the animals under observation during 48 hours. In this table are also set forth the LD50 of acetylsalicylic acid and of indometacine used as reference materials.

For data set [2], the system named is peritoneal pain induced by injection of acetic acid. Put plainly: Analgesic activity: inhibition test of the peritoneal pain induced by injection of acetic acid (writhing). It counts as in vivo, mice. The conditions noted are these: Mus musculus, read-out: % analgesia. As to the method: The analgesic activity was determined by the inhibition test of the peritoneal pain induced by injection of acetic acid.
The materials having an analgesic action reduce or eliminate this syndrome.
Lots of 10 mice are given orally the various test compounds, 30 minutes prior to injection of the challenging material. The writhing movements are counted during 15 minutes and the analgesic effect is expressed as percent decrease of the number of stretching movements with respect to the reference animals.
The same test was carried out with acetylsalicylic acid.
Background: In writhing tests, fewer writhes than in controls are read as antinociception.

The subject of data set [3] is carragheenin-induced edema of the paws. The experiment in a line: Anti-inflammatory activity: test of the carragheenin-induced edema of the paws in rats. The conditions noted are these: Rattus norvegicus, 1 h, read-out: % inhibition of inflammation; for inhibition in vivo at 50 mg/kg: 50 mg/kg (about 1/36 of LD50); for inhibition in vivo at 67 mg/kg: 67 mg/kg (about 1/36 of LD50); for inhibition in vivo at 33 mg/kg: 33 mg/kg (about 1/36 of LD50). Format: in vivo. As to the method: The anti-inflammatory activity was determined by means of the test of the carragheenin-induced edema of the pawsin rats.
Male rats weighing about 120 g are administered 0.1 ml of an 0.5% carragheenin suspension (plantar sub-aponeurotic injection) one hour after oral treatment with the various test compounds.
The volume of the rear paws is measured prior to injection of the inflammatory agent, and then 2, 3 and 4 hours after injection.
The difference between the volume of the paws of the treated animals and the volume of the paws of the reference animals evidences the anti-inflammatory action of the various test compounds.
The same test was carried out with indometacine.

[4] abbreviates: male rats, oral, one hour before carragheenin.
The mark [5] stands for this setting: mice, oral, 30 minutes before acetic acid.
Setting [6] is: male rats, oral, 81 mg/kg (about 1/36 of LD50), one hour before carragheenin.

Usually LD50 stands for the dose expected to kill half of the subjects tested. Take `C=CCNc1ccc(C(C)C(=O)[O-])cc1.[Li+]` (stereo not shown): the median lethal dose (LD50) at 48 h in data set [1] is 2910 mg/kg.

Regarding `C=CCNc1ccc(C(C)C(=O)O)cc1` (stereo not shown) [2-(p-allylaminophenyl)propionic acid, 2-(p-Allylaminophenyl)-propionic acid], the LD50 at 48 h in data set [1] was found to be 1780 mg/kg. Moreover, the inhibition in vivo at 20 mg/kg in data set [2] (mice, oral, 20 mg/kg, 30 minutes before acetic acid) was 50%. Moreover, in data set [3] (setting [4]), the inhibition in vivo at 50 mg/kg was found to be 50%.

Compound `CC(C(=O)O)c1ccc(NCc2ccccc2)cc1` (stereo not shown) [2-(p-benzylaminophenyl)propionic acid] returned a 50% lethal dose (LD50) at 48 h in data set [1] of 880 mg/kg. Besides, the inhibition in vivo at 10 mg/kg in data set [2] (mice, oral, 10 mg/kg, 30 minutes before acetic acid) is 47%. In addition, in data set [3] (male rats, oral, 25 mg/kg (about 1/36 of LD50), one hour before carragheenin), the inhibition in vivo at 25 mg/kg was determined as 12%.

The compound `CCNc1ccc(C(C)C(=O)O)cc1` (stereo not shown) [2-(p-ethylaminophenyl)propionic acid, 2-(p-Ethylaminophenyl)propionic acid] gave an LD50 at 48 h in data set [1] of 2400 mg/kg. The inhibition in vivo at 27 mg/kg in data set [2] (setting [5]) was determined as 44%. In data set [3] (setting [4]), the inhibition in vivo at 67 mg/kg worked out at 47%.

`CC(C)Nc1ccc(C(C)C(=O)O)cc1` (stereo not shown) [2-(p-isopropylaminophenyl)propionic acid, 2-(p-Isopropylaminophenyl)-propionic acid]: the median lethal dose (LD50) at 48 h in data set [1] turned out to be 2400 mg/kg. The inhibition in vivo at 27 mg/kg in data set [2] (setting [5]) worked out at 56%. The inhibition in vivo at 67 mg/kg in data set [3] (setting [4]) amounted to 44%.

`C=C(C)CNc1ccc(C(C)C(=O)O)cc1` (stereo not shown) [2-(p-methallylaminophenyl)propionic acid, 2-(p-Methallylaminophenyl)propionic acid] gave an LD50 at 48 h in data set [1] of 2400 mg/kg. For the same compound, the inhibition in vivo at 7 mg/kg in data set [2] (mice, oral, 7 mg/kg, 30 minutes before acetic acid) amounted to 58%. Also, in data set [3] (setting [4]), the inhibition in vivo at 67 mg/kg is 51%.

As for `CNc1ccc(C(C)C(=O)O)cc1` (stereo not shown) [2-(p-methylaminophenyl)propionic acid, 2-(p-Methylaminophenyl)propionic acid], the median lethal dose (LD50) at 48 h in data set [1] was > 3200 mg/kg. Also, the inhibition in vivo at 36 mg/kg in data set [2] (setting [5]) is 60%. Also, the inhibition in vivo at 89 mg/kg in data set [3] (male rats, oral, 89 mg/kg (about 1/36 of LD50), one hour before carragheenin) is 44%.

For `CCCCNc1ccc(C(C)C(=O)O)cc1` (stereo not shown) [2-(p-n-butylaminophenyl)propionic acid, 2-(p-n-Butylaminophenyl)propionic acid], in data set [1], the LD50 at 48 h is 1200 mg/kg. Besides, the inhibition in vivo at 13 mg/kg in data set [2] (mice, oral, 13 mg/kg, 30 minutes before acetic acid) is 50%. Moreover, the inhibition in vivo at 33 mg/kg in data set [3] (setting [4]) was 33%.

The compound `CCCNc1ccc(C(C)C(=O)O)cc1` (stereo not shown) [2-(p-n-propylaminophenyl)-propionic acid, 2-(p-n-Propylaminophenyl)propionic acid] yielded an LD50 at 48 h in data set [1] of 2400 mg/kg. Further, the inhibition in vivo at 13.5 mg/kg in data set [2] (setting [5]) is 61%. The inhibition in vivo at 67 mg/kg in data set [3] (setting [4]) came out at 47%.

Regarding `C#CCNc1ccc(C(C)C(=O)O)cc1` (stereo not shown) [2-(p-propargylaminophenyl)propionic acid, 2-(p-Propargylaminophenyl)-propionic acid], in data set [1], the LD50 at 48 h was 2400 mg/kg. Moreover, the inhibition in vivo at 13.5 mg/kg in data set [2] (setting [5]) worked out at 55%. Besides, the inhibition in vivo at 67 mg/kg in data set [3] (setting [4]) amounted to 47%.

In data set [1], `C=C(C)CNc1ccc(C(C)C(=O)OC)cc1.Cl` (stereo not shown) [Methyl 2-(p-methallylaminophenyl)-propionate hydrochloride] came in with a 50% lethal dose (LD50) at 48 h of 2400 mg/kg. Moreover, the inhibition in vivo at 27 mg/kg in data set [2] (setting [5]) was determined as 49%. The inhibition in vivo at 67 mg/kg in data set [3] (setting [4]) amounted to 46%.

In the case of `CC(=O)Oc1ccccc1C(=O)O` [acetylsalicylic acid, reference compound], the LD50 at 48 h in data set [1] stood at 1500 mg/kg. Moreover, the inhibition in vivo at 100 mg/kg in data set [2] (po) turned out to be 55%.

`C=CCNc1ccc(CC(=O)OCC)cc1` [ethyl p-allylaminophenylacetate, Ethyl para-allylaminophenylacetate] displayed a median lethal dose (LD50) at 48 h in data set [1] of 2400 mg/kg. The inhibition in vivo at 67 mg/kg in data set [2] (setting [5]) was 41%; in data set [3] (setting [4]), 39%.

In data set [1], `C=C(C)CNc1ccc(CC(=O)OCC)cc1` [ethyl p-methallylaminophenylacetate, Ethyl p-methallylaminophenylacetate] gave a 50% lethal dose (LD50) at 48 h of 2400 mg/kg. For the same compound, the inhibition in vivo at 67 mg/kg amounted to 51% in data set [2] (setting [5]) and 38% in data set [3] (setting [4]).

In data set [1], `COc1ccc2c(c1)c(CC(=O)O)c(C)n2C(=O)c1ccc(Cl)cc1` [indometacine, reference compound] came in with an LD50 at 48 h of 50 mg/kg. For the same compound, the inhibition in vivo at 5 mg/kg in data set [3] (po) came out at 37%.

As for `C=CCNc1ccc(C(C)C(=O)[O-])cc1.[Li+]` (stereo not shown) [lithium salt], the inhibition in vivo at 81 mg/kg in data set [2] (po) is 28%; in data set [3] (po) it was 59%.

The compound `C=CCNc1ccc(C(C)C(=O)OC)cc1` (stereo not shown) [methyl 2-(p-allylaminophenyl)propionate, Methyl 2-(p-allylaminophenyl)-propionate] came in with an LD50 at 48 h in data set [1] of 1600 mg/kg. Besides, the inhibition in vivo at 25 mg/kg in data set [2] (mice, oral, 25 mg/kg, 30 minutes before acetic acid) was 57%. Besides, in data set [3] (setting [4]), the inhibition in vivo at 50 mg/kg stood at 35%.

Consider `C=CCNc1ccc(CC(=O)O)cc1` [p-allylaminophenylacetic acid, p-Allylaminophenylacetic acid], for which, in data set [1], the LD50 at 48 h was 1550 mg/kg. The inhibition in vivo at 100 mg/kg in data set [2] (mice, oral, 100 mg/kg, 30 minutes before acetic acid) turned out to be 51%. Also, the inhibition in vivo at 45 mg/kg in data set [3] (male rats, oral, 45 mg/kg (about 1/36 of LD50), one hour before carragheenin) came out at 32%.

In data set [1], `O=C(O)Cc1ccc(NCc2ccccc2)cc1` [p-benzylaminophenylacetic acid, p-Benzylaminophenylacetic acid] yielded an LD50 at 48 h of 2400 mg/kg. In addition, the inhibition in vivo at 67 mg/kg in data set [2] (setting [5]) is 33%; in data set [3] (setting [4]) it was 26%.

On to `CCNc1ccc(CC(=O)O)cc1` [p-ethylaminophenylacetic acid, p-Ethylaminophenylacetic acid], for which the LD50 at 48 h in data set [1] was 2910 mg/kg. In data set [2] (mice, oral, 16 mg/kg, 30 minutes before acetic acid), the inhibition in vivo at 16 mg/kg is 37.5%. Moreover, in data set [3] (setting [6]), the inhibition in vivo at 81 mg/kg stood at 23%.

With `CC(C)Nc1ccc(CC(=O)O)cc1` [p-isopropylaminophenylacetic acid, p-Isopropylaminophenylacetic acid], the 50% lethal dose (LD50) at 48 h in data set [1] is 2400 mg/kg. Besides, the inhibition in vivo at 13.5 mg/kg in data set [2] (setting [5]) was 42%. Moreover, the inhibition in vivo at 67 mg/kg in data set [3] (setting [4]) came to 42%.

In turn, `C=C(C)CNc1ccc(CC(=O)O)cc1` [p-methallylaminophenylacetic acid, p-Methallylaminophenylacetic acid] displayed an LD50 at 48 h in data set [1] of 1780 mg/kg. In addition, the inhibition in vivo at 49 mg/kg stood at 32% in data set [2] (mice, oral, 49 mg/kg, 30 minutes before acetic acid) and 25% in data set [3] (male rats, oral, 49 mg/kg (about 1/36 of LD50), one hour before carragheenin).

Consider `CCCCNc1ccc(CC(=O)O)cc1` [p-n-butylaminophenylacetic acid, p-n-Butylaminophenylacetic acid], for which, in data set [1], the LD50 at 48 h was 1200 mg/kg. Further, the inhibition in vivo at 33 mg/kg in data set [2] (mice, oral, 33 mg/kg, 30 minutes before acetic acid) was determined as 51%; in data set [3] (setting [4]) it was 21%.

In turn, `CCCNc1ccc(CC(=O)O)cc1` [p-n-propylaminophenylacetic acid, p-n-Propylaminophenylacetic acid] came in with an LD50 at 48 h in data set [1] of 2400 mg/kg. Besides, the inhibition in vivo at 27 mg/kg in data set [2] (setting [5]) worked out at 49%. The inhibition in vivo at 67 mg/kg in data set [3] (setting [4]) turned out to be 38%.

In the case of `C#CCNc1ccc(CC(=O)O)cc1` [p-propargylaminophenylacetic acid], the 50% lethal dose (LD50) at 48 h in data set [1] was 2910 mg/kg. The inhibition in vivo at 36 mg/kg in data set [2] (setting [5]) came out at 51%. Also, the inhibition in vivo at 81 mg/kg in data set [3] (setting [6]) was determined as 18%.
